IC50 data for 18 compounds are collected here from patent EP4553080A1, “NUCLEOSIDE DERIVATIVES AS ANTIVIRAL AGENTS AGAINST CORONAVIRUSES” (Ustav Organicke Chemie a Biochemie AV CR, v.v.i., priority 2023, dated 2025).

For orientation: IC50 means the concentration that inhibits the measured activity by half.

The experiment addresses nsp14 methyltransferase from SARS-CoV-2 (Severe acute respiratory syndrome coronavirus 2, UniProt P0DTD1). Put plainly: Nsp14 MTase activity inhibition in vitro (EchoMS assay). In kind it is biochemical. To be noted: recombinant nsp14 protein expressed in E. coli; dose-response curve.
With `Cc1nsc(-c2ccccc2)c1CSC[C@H]1O[C@@H](n2cc(-c3ccc(C#N)cc3)c3c(N)ncnc32)[C@H](O)[C@@H]1O` [Compound 231b, 4-(4-Amino-7-((2R,3R,4S,5S)-3,4-dihydroxy-5-((((3-methyl-5-phenylisothiazol-4-yl)methyl)thio)methyl)tetrahydrofuran-2-yl)-7H-pyrrolo[2,3-d]pyrimidin-5-yl)benzonitrile], the IC50 lay in the range of 0.1 to 0.5 µM.
The figure for `Cc1onc(-c2ccccc2)c1CSC[C@H]1O[C@@H](n2ccc3c(N)ncnc32)[C@H](O)[C@@H]1O` [Compound 48c, (2R,3R,4S,5S)-2-(4-Amino-7H-pyrrolo[2,3-d]pyrimidin-7-yl)-5-((((5-methyl-3-phenylisoxazol-4-yl)methyl)thio)methyl)tetrahydrofuran-3,4-diol] is 0.1 to 0.5 µM.
`COc1ccc(-c2onc(C)c2CSC[C@H]2O[C@@H](n3ccc4c(N)ncnc43)[C@H](O)[C@@H]2O)cc1` [Compound 94c, (2R,3R,4S,5S)-2-(4-Amino-7H-pyrrolo[2,3-d]pyrimidin-7-yl)-5-((((5-(4-methoxyphenyl)-3-methylisoxazol-4-yl)methyl)thio)methyl)tetrahydrofuran-3,4-diol]: the IC50 was in the range of 0.01 to 0.03 µM.
For the compound `Cn1cnc(-c2ccccc2)c1CSC[C@H]1O[C@@H](n2cc(-c3ccc(C#N)cc3)c3c(N)ncnc32)[C@H](O)[C@@H]1O` [Compound 230b, 4-(4-Amino-7-((2R,3R,4S,5S)-3,4-dihydroxy-5-((((1-methyl-4-phenyl-1H-imidazol-5-yl)methyl)thio)methyl)tetrahydrofuran-2-yl)-7H-pyrrolo[2,3-d]pyrimidin-5-yl)benzonitrile], the IC50 is 0.1 to 0.5 µM.
Turning to `COc1ccc(/C=C/c2cn([C@@H]3O[C@H](CSCc4c(C)noc4-c4ccccc4)[C@@H](O)[C@H]3O)c3ncnc(N)c23)cc1` [Compound 182b, (2R,3R,4S,5S)-2-(4-Amino-5-((E)-4-methoxystyryl)-7H-pyrrolo[2,3-d]pyrimidin-7-yl)-5-((((3-methyl-5-phenylisoxazol-4-yl)methyl)thio)methyl)tetrahydrofuran-3,4-diol], the IC50 fell in the range of 0.03 to 0.1 µM.
As for `Cc1nsc(-c2ccccc2)c1CSC[C@H]1O[C@@H](n2cc(C#Cc3cncnc3)c3c(N)ncnc32)[C@H](O)[C@@H]1O` [Compound 238c, (2R,3R,4S,5S)-2-(4-Amino-5-(pyrimidin-5-ylethynyl)-7H-pyrrolo[2,3-d]pyrimidin-7-yl)-5-((((3-methyl-5-phenylisothiazol-4-yl)methyl)thio)methyl)tetrahydrofuran-3,4-diol], the IC50 lay within 0.03 to 0.1 µM.
In the case of `Cc1nccc(-c2ccccc2)c1CSC[C@H]1O[C@@H](n2ccc3c(N)ncnc32)[C@H](O)[C@@H]1O` [Compound 50c, (2R,3R,4S,5S)-2-(4-Amino-7H-pyrrolo[2,3-d]pyrimidin-7-yl)-5-((((2-methyl-4-phenylpyridin-3-yl)methyl)thio)methyl)tetrahydrofuran-3,4-diol] it was 0.1 to 0.5 µM; in that of `COc1ccc(-c2cn([C@@H]3O[C@H](CSCc4c(C)noc4-c4ccccc4)[C@@H](O)[C@H]3O)c3ncnc(N)c23)cc1OC` [Compound 147b], 0.01 to 0.03 µM; in that of `Cc1ncnc(-c2ccc3c(c2)OCO3)c1CSC[C@H]1O[C@@H](n2ccc3c(N)ncnc32)[C@H](O)[C@@H]1O` [Compound 102c, (2R,3R,4S,5S)-2-(4-Amino-7H-pyrrolo[2,3-d]pyrimidin-7-yl)-5-((((4-(benzo[d][1,3]dioxol-5-yl)-6-methylpyrimidin-5-yl)methyl)thio)methyl)tetrahydrofuran-3,4-diol], 0.03 to 0.1 µM.
For the compound `Cc1noc(-c2ccccc2)c1CSC[C@H]1O[C@@H](n2cc(C#Cc3cnc(N)nc3)c3c(N)ncnc32)[C@H](O)[C@@H]1O` [Compound 174b, (2R,3R,4S,5S)-2-(4-Amino-5-((2-aminopyrimidin-5-yl)ethynyl)-7H-pyrrolo[2,3-d]pyrimidin-7-yl)-5-((((3-methyl-5-phenylisoxazol-4-yl)methyl)thio)methyl)tetrahydrofuran-3,4-diol], the IC50 lay within 0.03 to 0.1 µM.
For `Cc1noc(-c2ccccc2)c1CSC[C@H]1O[C@@H](n2cc(-c3ccc4nc[nH]c4c3)c3c(N)ncnc32)[C@H](O)[C@@H]1O` [Compound 151, (2R,3R,4S,5S)-2-(4-Amino-5-(1H-benzo[d]imidazol-6-yl)-7H-pyrrolo[2,3-d]pyrimidin-7-yl)-5-((((3-methyl-5-phenylisoxazol-4-yl)methyl)thio)methyl)tetrahydrofuran-3,4-diol], the IC50 was in the range of 0.03 to 0.1 µM.
Turning to `Cc1noc(-c2ccc(N)cc2)c1CSC[C@H]1O[C@@H](n2ccc3c(N)ncnc32)[C@H](O)[C@@H]1O` [Compound 111, (2R,3R,4S,5S)-2-(4-Amino-7H-pyrrolo[2,3-d]pyrimidin-7-yl)-5-((((5-(4-aminophenyl)-3-methylisoxazol-4-yl)methyl)thio)methyl)tetrahydrofuran-3,4-diol], the IC50 was in the range of 0.03 to 0.1 µM.
Turning to `Cc1noc(-c2ccc(F)cc2)c1CSC[C@H]1O[C@@H](n2ccc3c(N)ncnc32)[C@H](O)[C@@H]1O` [Compound 97c, (2R,3R,4S,5S)-2-(4-Amino-7H-pyrrolo[2,3-d]pyrimidin-7-yl)-5-((((5-(4-fluorophenyl)-3-methylisoxazol-4-yl)methyl)thio)methyl)tetrahydrofuran-3,4-diol], the IC50 lay within 0.1 to 0.5 µM.
For `C=Cc1cn([C@@H]2O[C@H](CSCc3c(C)noc3-c3ccccc3)[C@@H](O)[C@H]2O)c2ncnc(N)c12` [Compound 139b, (2R,3R,4S,5S)-2-(4-Amino-5-vinyl-7H-pyrrolo[2,3-d]pyrimidin-7-yl)-5-((((3-methyl-5-phenylisoxazol-4-yl)methyl)thio)methyl)tetrahydrofuran-3,4-diol], the IC50 lay in the range of 0.5 to 2 µM.
In the case of `Cc1cccc(-c2ccccc2)c1CSC[C@H]1O[C@@H](n2ccc3c(N)ncnc32)[C@H](O)[C@@H]1O` [Compound 58c, (2R,3R,4S,5S)-2-(4-Amino-7H-pyrrolo[2,3-d]pyrimidin-7-yl)-5-((((3-methyl-[1,1'-biphenyl]-2-yl)methyl)thio)methyl)tetrahydrofuran-3,4-diol] it was 0.5 to 2 µM; in that of `Cn1nnc(-c2ccccc2)c1CSC[C@H]1O[C@@H](n2ccc3c(N)ncnc32)[C@H](O)[C@@H]1O` [Compound 55c, (2R,3R,4S,5S)-2-(4-Amino-7H-pyrrolo[2,3-d]pyrimidin-7-yl)-5-((((1-methyl-4-phenyl-1H-1,2,3-triazol-5-yl)methyl)thio)methyl)tetrahydrofuran-3,4-diol], 0.03 to 0.1 µM.
In the case of `Cc1noc(-c2ccc(N)cc2)c1CSC[C@H]1O[C@@H](n2cc(-c3ccc(C#N)cc3)c3c(N)ncnc32)[C@H](O)[C@@H]1O` [Compound 234b, 4-(4-Amino-7-((2R,3R,4S,5S)-5-((((5-(4-aminophenyl)-3-methylisoxazol-4-yl)methyl)thio)methyl)-3,4-dihydroxytetrahydrofuran-2-yl)-7H-pyrrolo[2,3-d]pyrimidin-5-yl)benzonitrile] it was 0.01 to 0.03 µM; in that of `Cc1noc(-c2ccccc2)c1CSC[C@H]1O[C@@H](n2nc(CCCC#N)c3c(N)ncnc32)[C@H](O)[C@@H]1O` [Compound 223b, 4-(4-Amino-1-((2R,3R,4S,5S)-3,4-dihydroxy-5-((((3-methyl-5-phenylisoxazol-4-yl)methyl)thio)methyl)tetrahydrofuran-2-yl)-1H-pyrazolo[3,4-d]pyrimidin-3-yl)butanenitrile], 0.03 to 0.1 µM.
